According to patent publication US20110195924A1, “Methods of Inhibiting the Interaction Between S100P and the Receptor for Advanced Glycation End-Products” (priority 2008, published 2011):
“Also recorded” adds a separate entry of the source.

Columns and labels:
[1] = target: T1, S100P binding with RAGE (Homo sapiens, UniProt P25815); assay: ELISA of S100P binding to RAGE (sRAGE coated plate)
T1 construct: full-length human S100P cDNA (NM_005980) was cloned into the pTrcHis2 vector; His; made in house; host or cells: bacteria (S100P)
T1 sequence (P25815 1-95): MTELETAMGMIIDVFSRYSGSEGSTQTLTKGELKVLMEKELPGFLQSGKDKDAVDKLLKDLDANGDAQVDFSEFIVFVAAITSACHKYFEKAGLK
Protocol: After removing un-bound S100P by washing with detergent, the bound S100P and RAGE complex was quantified by adding HRP labeled antibody against S100P. *, P=0.04 C5 1 μM versus cromolyn 5 μM. Two-tailed two-sample (unpaired) Student's t-tests were used to determine P values.
The plate was washed and the amount of bound S100P was quantitated using anti-S100P antibody.
The binding of S100P to RAGE was determined using an ELISA assay. sRAGE was attached to the dish and recombinant S100P (50 ng) was added with or without the indicated concentrations of cromolyn analogs. The plate was washed and the amount of bound S100P was quantitated using anti-S100P antibody.

[2] = test system: NFκB activity; assay: S100P stimulated NFκB luciferase reporter in MPanc-96 cells; assay type: cell-based, Human; conditions: S100P 100 nM, compound 1 μM, 5 hours
Protocol: MPanc-96 pancreatic cancer cell lines stably expressing an NFκB luciferase reporter were examined for the effects of S100P, cromolyn and C5. Cells were plated at 5.0×10^3 cells/well, treated for 5 hours with 100 nM of S100P, with or without cromolyn and C5 (1 μM), and activity of a luciferase gene driven by the NFkB promoter was analyzed. P=0.05 C5 versus cromolyn. Two-tailed two-sample (unpaired) Student's t-tests were used to determine P values.

[3] = test system: PC3 prostate cells; assay: PC3 prostate cell viability with taxol; assay type: cell-based; conditions: taxol 100 nM, cromolyn 10 μM, 48 hours
Protocol: PC3 prostate cells were plated and treated with taxol (100 nM) either in the presence or absence of cromolyn (10 μM) for 48 hours. Cell viability was analyzed after 48 hours. *, P<0.05.

[4] = test system: BxPC-3 cells; assay: BxPC-3 matrigel invasion assay; assay type: cell-based; conditions: 24 hours; for cells invaded, mean: 0 μM 19.3%
Protocol: FIGS. 2A-2D show the effect of cromolyn on pancreatic cancer cell invasion. Panc-1 and BxPC-3 cells were plated in Bio-coat matrigel and control chambers and cultured in serum-free culture media. After 24 hours non-invaded cells in the upper chamber were removed, and cells that invaded onto the lower surface of the membrane were counted from five adjacent fields. […] Data are expressed as the percent invasion through the matrigel matrix and membrane relative to migration through the control membrane. Means and 95% confidence intervals from three independent experiments performed in triplicate are shown. Two-tailed two-sample (unpaired) Student's t-tests were used to determine P values. Panc-1 and BxPC-3 cells were seeded in BIOCOAT matrigel invasion chambers and in control chambers without matrigel (Becton-Dickinson, Bedford, Mass.) according to the manufacturer's protocol. Panc-1 cells were seeded with S100P (100 nM) with or without cromolyn (100 μM), and BxPC-3 cells were seeded with or without cromolyn (1-100 μM). Briefly, 2.0×10^5 cells in 300 μL top solution (serum-free media) were added to each chamber and allowed to invade matrigel for 24 hours at 37° C. in a 5% CO2 atmosphere. The non-invading cells on the upper surface of membrane were removed from the chambers with a cotton swab, and the invading cells on the lower surface of the membrane were fixed and stained using a Diff-Quick stain kit (Becton Dickinson, Bedford, Mass.). After two washes with water, the chambers were allowed to air dry. The numbers of invading cells in five adjacent microscope fields per membrane were counted at 20× magnification to obtain the average number of cells per field. Data are expressed as the percent invasion through the matrigel matrix and membrane relative to the migration through the control membrane. The assays were performed three times.

[5] = test system: MPanc-96 cells; assay: MPanc-96 cell apoptosis by flow cytometry, alone or with gemcitabine; assay type: cell-based, Human; conditions: alone and in conjunction with gemcitabine 10 μM; 100 and 1000 nM; 72 hours
Protocol: FIG. 11 compares the effects of cromolyn and C5 alone and in combination with gemcitabine on MPanc-96 cell apoptosis. MPanc-96 cells were treated with cromolyn or C5 (100 and 1000 nM) with (+) or without (−) gemcitabine (10 μM). Apoptosis was analyzed after 72 hours by flow cytometry.

[6] = test system: Panc-1 cells; assay: Panc-1 cell proliferation (MTS); assay type: cell-based
Protocol: Panc-1 pancreatic adenocarcinoma cells (1.0×10^3 cells/well) were cultured in the presence or absence of S100P (100 nM) and with or without cromolyn (100 μM), and cell proliferation was analyzed at 24, 48, and 72 hours. Means and 95% confidence intervals of three independent experiments performed in triplicate are shown. *, P=0.001, S100P alone versus S100P+cromolyn.
Panc-1 cells were plated at 1.0×10^3 cells/well and treated with platelet-derived growth factor (10 ng/mL) with or without cromolyn (100 μM), and cell proliferation was analyzed after 48 hours. Means and 95% confidence intervals of three independent experiments performed in triplicate are shown. *, P=0.004 PDGF and P=0.022 cromolyn+PDGF versus control.
Growth of Panc-1 and BxPC3 pancreatic adenocarcinoma cells was analyzed using MTS reagent (Promega, Madison, Wis.) according to the manufacturer's directions. Purified S100P (100 nM final concentration) with or without cromolyn (100 μM final concentration) was added to Panc-1 cells. Only cromolyn (0-100 μM) was added to BxPC-3 cells, which express endogenous S100P. For both cell models, 1.0×10^3 cells/well were plated in 96-well culture dishes. Cells were treated with S100P, PDGF, or cromolyn, or a combination, followed immediately by treatment with either S100P or PDGF. MTS (20 μL per well) was added to cells at various times, and the mixture was incubated for 1 hour at 37° C. Samples were then read at 490 nm (as O.D. units) on a uQuant-Microplate Spectrophotometer (Bio-Tek Services Inc., Richmond, Va.). The assay was performed three times in triplicate.

[7] = test system: BxPC-3 cells; assay: BxPC-3 cell viability, alone or with gemcitabine; assay type: cell-based; conditions: 72 hours
Protocol: BxPC-3 cells were plated at 1.0×10^3 cells/well and treated with 0 μM, 1 μM, 10 μM, and 100 μM of cromolyn or C5 alone or in combination with gemcitabine 1 μM and cell viability was analyzed after 72 hours. Two-tailed two-sample (unpaired) Student's t-tests were used to determine P values. […] BxPC-3 cells were plated at 1.0×10^3 cells/well and treated with either 100 μM of cromolyn or 1 μM C5 alone or in combination with gemcitabine (1 μM) and cell viability was analyzed after 72 hours.

Compound: O=C(O)c1cc(=O)c2c(OCC(O)COc3cccc4oc(C(=O)O)cc(=O)c34)cccc2o1 [cromolyn, disodium 1,3-bis[(2′-carboxylatochromon-5′-yl)oxy]-2-hydroxypropane]
- blocking of the interaction / binding of S100P with RAGE [1]: blocked; also recorded: able to block
- concentration achieving the same level of S100P inhibition ([1]; FIG. 7): 5 µM
- NFκB activity in pancreatic cancer cells in vitro [2]: inhibit
- cell killing effect of taxol on prostate cancer cells [3]: increased the cell killing effect of taxol
- cells invaded, difference versus 0 μM ([4]; cromolyn 10 μM): 10.0%
- cells invaded, mean ([4]; cromolyn 10 μM): 9.3%
- cells invaded, difference versus 0 μM ([4]; cromolyn 100 μM): 11.7%
- cells invaded, mean ([4]; cromolyn 100 μM): 7.7%
- MPanc-96 cell viability [5]: inhibit
- serum stimulated cell proliferation ([6]; Panc-1): did not influence
- cell proliferation, cromolyn treatment alone ([6]; Panc-1, no S100P): no effect
- PDGF stimulated cell growth ([6]; Panc-1, PDGF 10 ng/mL with cromolyn 100 μM, 48 hours): nor did it inhibit growth stimulation caused by PDGF
- cell proliferation, mean ([6]; Panc-1, S100P 100 nM + cromolyn 100 μM): 0.56 MTS units
- cell proliferation, difference S100P versus S100P+cromolyn ([6]; Panc-1, S100P 100 nM, cromolyn 100 μM): 0.37 MTS units
- concentration giving the same level of cell reduction in combination with gemcitabine ([7]; BxPC-3, gemcitabine 1 μM, FIG. 10): 100 µM
- BxPC-3 cell viability ([7]; alone and in conjunction with gemcitabine 1 μM): inhibit
